The text below walks through data of patent US20230301895A1, “NAIL FORMULATIONS AND TREATMENT REGIMES” (NOVABIOTICS LIMITED, priority 2020, published 2023).

Values after ≈ are worked out from the molar mass of the structure shown. Where a SMILES comes first, the peptide text is derived from it. [ ]: non-standard residue; d: D form. The star is where a group is joined. Sta = CC(C)C[C@H](N)[C@@H](O)CC(=O)O; Isovaleryl = CC(C)CC(=O)*

Test [1] concerns T. rubrum NCPF0118. Briefly: Metabolic activity (Alamar blue) of T. rubrum exposed to NP213 in dried nail lacquers or PEG4000 formulation. Format: cell-based, Trichophyton rubrum. How it is done:
NP213 (5 and 10% w/v) was formulated in 50% (v/v) PEG4000. Alternatively, NP213 was dissolved/suspended in the lacquer formulations at concentrations of 0, 5 or 10 % (w/v). 10 µl of each lacquer was applied to the base of a well in a flat-bottomed 96-well plate in triplicate wells and allowed to dry for 90 min. An inoculum of 3 × 10^3 cfu T. rubrum NCPF0118 was prepared in 1 × RPMI-1640 liquid medium and 200 µl was added to all wells containing lacquers and control wells containing no lacquer (growth control). An additional 3 wells per plate contained 200 µl RPMI-1640 liquid medium without inoculum to serve as sterility controls. To each well was added a minimal volume of Alamar blue solution (0.0025% (w/v) final concentration). Antifungal activity was determined based on changes in metabolic activity (due to metabolism of the cell viability indicator Alamar blue). Metabolic activity was monitored by fluorescence (Ex 530 nm/Em 590 nm) every 24 h for up to 168 h.
Background: Alamar Blue is a resazurin reagent that responds to reducing activity.

In test [2] the test system is T. rubrum NCPF0118. Format: cell-based, Trichophyton rubrum. Conditions: for effect of protease inhibitor alone on growth: 1 mM PMSF, 1 mg/L Pepstatin A, 10 µM E-64; for effect of protease inhibitor alone on growth / growth inhibition by protease inhibitor alone: 100 µM EDTA; for growth inhibition by protease inhibitor alone: RPMI-1640, 1 mg/L PMSF, 10 µM E64, 1 mg/L pepstatin. As to the method:
(§1) Antifungal susceptibility testing to determine the MIC was conducted by the broth microdilution procedure for filamentous fungi (M38-A2) (Clinical & Laboratory Standards Institute (CLSI). 2008. Reference Method for Broth Dilution Antifungal Susceptibility Testing of Filamentous Fungi; Approved Standard - Second Edition (M38-A2). Clinical and Laboratory Standards Institute, Wayne, PA). This experiment was carried out in triplicate with triplicate samples in each experiment. The proteolytic stability of NP213 was assessed by determining NP213 MIC as described above versus T. rubrum NCPF0118 and T. interdigitale NCPF0335 in the presence of the following protease inhibitors; serine proteases (1 mM phenylmethylsulfonyl fluoride; PMSF), metalloproteases (100 µM ethylenediaminetetraacetic acid; EDTA), aspartyl proteases (1 mg/L Pepstatin A) and cysteine proteases (10 µM trans-epoxysuccinyl-L-leucylamido(4-guanidino)butane; E-64).
(§2) T. rubrum NCPF0118 and T. interdigitale NCPF0335 in RPMI-1640 liquid medium. MIC was determined by the broth microdilution procedure (CLSI, 2008). Metalloprotease inhibitor -100 µM EDTA; Serine protease inhibitor - 1 mg/L PMSF; Cysteine protease inhibitor -10 µM E64; Aspartyl protease inhibitor - 1 mg/L pepstatin.
(§3) Antifungal susceptibility testing was conducted by the broth microdilution procedure as described in CLSI Approved Standard M38-A2. All peptides were dissolved in sterile deionised water (40 mg/ml) and stored at -20° C. until required. All experiments were carried out in triplicate, with triplicate samples in each experiment.

Test [3] has as its system T. interdigitale NCPF0335. The class given is cell-based. Conditions: for effect of protease inhibitor alone on growth: 1 mM PMSF, 1 mg/L Pepstatin A, 10 µM E-64; for effect of protease inhibitor alone on growth / growth inhibition by protease inhibitor alone: 100 µM EDTA; for growth inhibition by protease inhibitor alone: RPMI-1640, 1 mg/L PMSF, 10 µM E64, 1 mg/L pepstatin. How it is done: as §1, §2, §3

In test [4] the test system is Trichophyton rubrum NCPF0118. Briefly: Experimental model of dermatophyte nail infection on human nail fragments, colony counts. The class given is cell-based. Conditions: daily application to dorsal side of infected nail; FIG. 15. As to the method: An experimental model of dermatophyte nail infection was optimized to simulate onychomycosis under laboratory conditions and to test the antifungal efficacy of NP213. As an inert support and to provide a moist atmosphere, sterile water agar plates were prepared in 90-mm Petri dishes (1.5% (w/v) agar in sterile-deionised water). Petri dishes were divided into three sections, and individual pieces of sterile silicone rubber tubing (1-cm diameter; 3-mm height) were placed in each section, allowing the investigation of three nail fragments per plate. This prevented direct contact between the nails and the agar surface or the lid of the Petri dish. Such a setup was necessary because agar contains components that can bind to cationic peptides, including NP213, inhibiting their diffusion and reducing activity. Silicon tubing is permeable to oxygen and carbon dioxide, and its use ensured oxygen access to support fungal growth. Its diameter was sufficiently small to stably support the nail fragments. Uninfected human nails (sourced under ethical approval) were cleaned of all residual skin and debris before cutting to size (approximately four fragments were obtained from an adult great toenail), and their surface area and thickness were determined using a micrometer. […] Samples were plated on potato dextrose agar and incubated at 30° C. for 14 days, and the colonies were counted.

Test [5] relates to T. rubrum NCPF0118 and T. interdigitale NCPF0335. The test is described as follows: Antifungal susceptibility testing, summary statements for both dermatophytes. Format: cell-based. Conditions: Example 4 summary. How it is done:
as §1
Antifungal susceptibility testing was carried out as described above, but with the following modifications. RPMI-1640 medium was substituted for 0.5% (w/v) powdered nail, skin keratin or sheep’s wool keratin suspensions in 10 mM sodium phosphate buffer, pH 7.0 containing 0.0025% (w/v) AlamarBlue™ (ThermoFisher Scientific, UK). […]

On to `N=C(N)NCCC[C@@H]1NC(=O)[C@H](CCCNC(=N)N)NC(=O)[C@H](CCCNC(=N)N)NC(=O)[C@H](CCCNC(=N)N)NC(=O)[C@H](CCCNC(=N)N)NC(=O)[C@H](CCCNC(=N)N)NC(=O)[C@H](CCCNC(=N)N)NC1=O` [NP213, cyclic R-R-R-R-R-R-R], for which, in test [1] (5% and 10% (w/v) NP213, metabolic activity up to 168 h, FIG. 1), the “antifungal activity in Roehm lacquer 1 compared to NP213 in 50% (v/v) PEG4000” value is listed as “lower”. For the same compound, the “antifungal activity in Roehm lacquer 2 compared to NP213 in 50% (v/v) PEG4000” value in test [1] (5% and 10% (w/v) NP213, metabolic activity up to 168 h, FIG. 2) is recorded as “lower”. The “antifungal activity in Roehm lacquer 3 compared to NP213 in 50% (v/v) PEG4000” value in test [1] (5% and 10% (w/v) NP213, metabolic activity up to 168 h, FIG. 3) is “lower”. In addition, the “antifungal activity in Roehm lacquer 4 compared to NP213 in 50% (v/v) PEG4000” value in test [1] (5% and 10% (w/v) NP213, metabolic activity up to 168 h, FIG. 4) is reported as “lower”. The “antifungal activity in Roehm lacquer 5 compared to NP213 in 50% (v/v) PEG4000” value in test [1] (5% and 10% (w/v) NP213, metabolic activity up to 168 h, FIG. 5) is “lower”. Also, the “antifungal activity in Anacor lacquer C compared to NP213 in 50% (v/v) PEG4000” value in test [1] (5% and 10% (w/v) NP213, metabolic activity up to 168 h, FIG. 6) is on record as “lower”. The “antifungal activity in 2d lacquer compared to NP213 in 50% (v/v) PEG4000” value in test [1] (10% (w/v) NP213 in 2d lacquer, metabolic activity up to 168 h, FIG. 7) is on record as “lower”. In addition, the “efficacy in the known nail lacquers” value in test [1] (lacquers manufactured by Anacor and Roehm) is listed as “not effective”. In addition, the “MIC (mg/L) T.rubrum NCPF0118” value in test [2] turned out to be 1000 mg/L (≈ 915 µM). In test [3], the “MIC (mg/L) T. interdigitale NPCF0335” value is given as 500 mg/L (≈ 457 µM) and the “MIC (mg/L) T.interdigitale NCPF0335” value is on record as 500 mg/L (≈ 457 µM). Besides, the “time from beginning treatment until antifungal effects are seen” value in test [4] was not above 11 days.

As to `CC(C)C[C@H](NC(=O)[C@H]1O[C@@H]1C(=O)O)C(=O)NCCCCN=C(N)N` (relative stereo) [Peptide E-64, trans-epoxysuccinyl-L-leucylamido(4-guanidino)butane], the “effect of protease inhibitor alone on growth” value in test [2] and in test [3] was “no effect on the growth” each time. Also, the “growth inhibition by protease inhibitor alone” value (shortened to “growth inhibition”) in test [2] and in test [3] was “did not inhibit growth” throughout.

As for `CC(C)CC(=O)N[C@H](C(=O)N[C@H](C(=O)N[C@@H](CC(C)C)[C@@H](O)CC(=O)N[C@@H](C)C(=O)N[C@@H](CC(C)C)[C@@H](O)CC(=O)O)C(C)C)C(C)C` [Pepstatin A] (Isovaleryl-VV[Sta]A[Sta]-OH), the “effect of protease inhibitor alone on growth” value in test [2] and in test [3] was “no effect on the growth” each time. The “growth inhibition” value in test [2] and in test [3] was “did not inhibit growth” each time.

`N=C(N)NCCC[C@@H]1NC(=O)[C@H](CCCNC(=N)N)NC(=O)[C@H](CCCNC(=N)N)NC(=O)[C@H](CCCNC(=N)N)NC(=O)[C@H](CCCNC(=N)N)NC(=O)[C@H](CCCNC(=N)N)NC(=O)[C@H](CCCNC(=N)N)NC(=O)[C@H](CCCNC(=N)N)NC(=O)[C@H](CCCNC(=N)N)NC(=O)[C@H](CCCNC(=N)N)NC(=O)[C@H](CCCNC(=N)N)NC1=O` [NP202, cyclic 11 R]: in test [2], the “MIC (mg/L) T.rubrum NCPF0118” value is listed as 250 mg/L (≈ 146 µM). Also, the “MIC (mg/L) T. interdigitale NPCF0335” value in test [3] is reported as 15.6 mg/L (≈ 9.08 µM).

For `N=C(N)NCCC[C@@H]1NC(=O)[C@H](CCCNC(=N)N)NC(=O)[C@H](CCCNC(=N)N)NC(=O)[C@H](CCCNC(=N)N)NC(=O)[C@H](CCCNC(=N)N)NC(=O)[C@H](CCCNC(=N)N)NC(=O)[C@H](CCCNC(=N)N)NC(=O)[C@H](CCCNC(=N)N)NC(=O)[C@H](CCCNC(=N)N)NC(=O)[C@H](CCCNC(=N)N)NC(=O)[C@H](CCCNC(=N)N)NC(=O)[C@H](CCCNC(=N)N)NC(=O)[C@H](CCCNC(=N)N)NC(=O)[C@H](CCCNC(=N)N)NC(=O)[C@H](CCCNC(=N)N)NC1=O` [NP203, cyclic 15R], the “MIC (mg/L) T.rubrum NCPF0118” value in test [2] is given as 62.5 mg/L (≈ 26.7 µM). Further, the “MIC (mg/L) T. interdigitale NPCF0335” value in test [3] is given as 3.9 mg/L (≈ 1.66 µM).

Take `O=S(=O)(F)Cc1ccccc1` [PMSF, phenylmethylsulfonyl fluoride]: in test [2], the “effect of protease inhibitor alone on growth” value was “no effect on the growth” and the “growth inhibition” value is “did not inhibit growth”. Further, in test [3], the “effect of protease inhibitor alone on growth” value is given as “no effect on the growth” and the “growth inhibition” value is “did not inhibit growth”.

Consider `O=C(O)CN(CCN(CC(=O)O)CC(=O)O)CC(=O)O` [EDTA, ethylenediaminetetraacetic acid], for which the “effect of protease inhibitor alone on growth” value in test [2] and in test [3] was “no effect on the growth” throughout. Besides, the “growth inhibition” value in test [2] and in test [3] was “did not inhibit growth” in each case. Also, the “effect of metalloprotease inhibitor on the anti-fungal effect of the cyclic peptide” value in test [5] is reported as “enhanced”.

Take `N=C(N)NCCC[C@@H]1NC(=O)[C@H](CCCNC(=N)N)NC(=O)[C@H](CCCNC(=N)N)NC(=O)[C@H](CCCNC(=N)N)NC(=O)[C@H](CCCNC(=N)N)NC1=O` [NP201, cyclic-5R] (cyclo(RRRRR)): the “MIC (mg/L) T.rubrum NCPF0118” value in test [2] is given as 500 mg/L (≈ 640 µM). Further, the “MIC (mg/L) T. interdigitale NPCF0335” value in test [3] turned out to be 1000 mg/L (≈ 1280 µM).

Consider `CC(C)C[C@H](NC(=O)[C@@H](O)[C@H](N)Cc1ccccc1)C(=O)O` [Bestatin], for which the “effect of metalloprotease inhibitor on the anti-fungal effect of the cyclic peptide” value in test [5] is “enhanced”.
